In patent publication US8791264B2 (Purdue Pharma L.P., priority 2006, dated 2014):

Key:
[1] = target: T1, recombinant rat L-type calcium channel (LTCC) subunits (α1c, α2δ, and β1) (Rattus norvegicus, UniProt P22002); assay: FLIPR calcium mobilization assay for L-type calcium channel; assay type: cell-based; settings: calcium mobilization in vitro assay; HEK293 cells expressing rat LTCC
T1 construct: expressed in transfected cells
Procedure: Recombinant human embryonal kidney cells (HEK293, ATCC) stably transfected with either N-type calcium channel (NTCC) subunits (α1b, α2δ, and ⊖3) or L-type calcium channel (LTCC) subunits (α1, α2δ, and β1) were routinely cultured in growth medium consisting of Dulbecco's Modified Eagles Medium containing 10% FBS, 100 U/mL penicillin, 100 μg/mL streptomycin, 4 mM L-glutamine, 500 μg/mL geneticin (G418), 20 μg/mL Blasticidin S (InVivogen, San Diego, Calif.) and 500 μg/mL zeocin (InVivogen).
FLIPR Calcium Mobilization Assay for L-Type Calcium Channel.
One day prior to performing this assay, HEK293 cells stably expressing recombinant rat L-type calcium channel (LTCC) subunits (α1c, α2δ, and β1) were trypsinized, then seeded on poly-D-lysine-coated 96-well clear-bottom black plates (Becton Dickinson, Franklin Lakes, N.J.) at 75,000 cells/well. On the day of the assay, the plates were washed with LTCC wash buffer (127 mM NaCl, 2 mM MgCl2, 700 μM NaH2PO4, 5 mM CaCl2, 5 mM NaHCO3, 8 mM HEPES, 10 mM glucose, pH 7.4), then loaded with 0.1 mL of LTCC wash buffer containing Fluo-4 (3 μM final concentration, Molecular Probes, Eugene, Oreg.). After 1 hour, the cells were washed with 0.1 mL LTCC wash buffer and resuspended in 0.05 mL LTCC assay buffer (same composition as LTCC wash buffer). Plates were then transferred to a FLIPR^96 for assay. The FLIPR measured basal Fluo-4 fluorescence for 15 seconds, then is added 0.05 mL of each compound tested diluted in LTCC assay buffer at final concentrations ranging from about 846 pM to about 17 μM. Fluo-4 fluorescence was then measured for 5 minutes. 0.1 mL KCl agonist dissolved in LTCC assay buffer was then added to the cells to produce a final concentration of 90 mM KCl, and fluorescence was measured for another 45 seconds. Data were collected over the entire time course and analyzed using Excel, Graph Pad Prism, or an in-house regression analysis software.

[2] = target: T2, N-type calcium channel (NTCC) (Homo sapiens, UniProt Q00975); assay: FLIPR calcium mobilization assay for N-type calcium channel; assay type: cell-based; settings: calcium mobilization in vitro assay; differentiated IMR32 cells
T2 construct: host or cells: IMR32 cells differentiated with dibutyryl cAMP and bromodeoxyuridine
How it was run: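 Differentiated IMR32 cells (8 days, dibutyryl cAMP and BrdU) loaded with 3 μM Fluo-4 during 90 mM KCl pre-stimulation, with compound at about 846 pM to 17 μM plus 5 μM nitrendipine. After washes in compound, FLIPR read basal fluorescence 315 s, then 45 s after KCl addition (final 90 mM).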

T1 sequence (P22002 whole entry): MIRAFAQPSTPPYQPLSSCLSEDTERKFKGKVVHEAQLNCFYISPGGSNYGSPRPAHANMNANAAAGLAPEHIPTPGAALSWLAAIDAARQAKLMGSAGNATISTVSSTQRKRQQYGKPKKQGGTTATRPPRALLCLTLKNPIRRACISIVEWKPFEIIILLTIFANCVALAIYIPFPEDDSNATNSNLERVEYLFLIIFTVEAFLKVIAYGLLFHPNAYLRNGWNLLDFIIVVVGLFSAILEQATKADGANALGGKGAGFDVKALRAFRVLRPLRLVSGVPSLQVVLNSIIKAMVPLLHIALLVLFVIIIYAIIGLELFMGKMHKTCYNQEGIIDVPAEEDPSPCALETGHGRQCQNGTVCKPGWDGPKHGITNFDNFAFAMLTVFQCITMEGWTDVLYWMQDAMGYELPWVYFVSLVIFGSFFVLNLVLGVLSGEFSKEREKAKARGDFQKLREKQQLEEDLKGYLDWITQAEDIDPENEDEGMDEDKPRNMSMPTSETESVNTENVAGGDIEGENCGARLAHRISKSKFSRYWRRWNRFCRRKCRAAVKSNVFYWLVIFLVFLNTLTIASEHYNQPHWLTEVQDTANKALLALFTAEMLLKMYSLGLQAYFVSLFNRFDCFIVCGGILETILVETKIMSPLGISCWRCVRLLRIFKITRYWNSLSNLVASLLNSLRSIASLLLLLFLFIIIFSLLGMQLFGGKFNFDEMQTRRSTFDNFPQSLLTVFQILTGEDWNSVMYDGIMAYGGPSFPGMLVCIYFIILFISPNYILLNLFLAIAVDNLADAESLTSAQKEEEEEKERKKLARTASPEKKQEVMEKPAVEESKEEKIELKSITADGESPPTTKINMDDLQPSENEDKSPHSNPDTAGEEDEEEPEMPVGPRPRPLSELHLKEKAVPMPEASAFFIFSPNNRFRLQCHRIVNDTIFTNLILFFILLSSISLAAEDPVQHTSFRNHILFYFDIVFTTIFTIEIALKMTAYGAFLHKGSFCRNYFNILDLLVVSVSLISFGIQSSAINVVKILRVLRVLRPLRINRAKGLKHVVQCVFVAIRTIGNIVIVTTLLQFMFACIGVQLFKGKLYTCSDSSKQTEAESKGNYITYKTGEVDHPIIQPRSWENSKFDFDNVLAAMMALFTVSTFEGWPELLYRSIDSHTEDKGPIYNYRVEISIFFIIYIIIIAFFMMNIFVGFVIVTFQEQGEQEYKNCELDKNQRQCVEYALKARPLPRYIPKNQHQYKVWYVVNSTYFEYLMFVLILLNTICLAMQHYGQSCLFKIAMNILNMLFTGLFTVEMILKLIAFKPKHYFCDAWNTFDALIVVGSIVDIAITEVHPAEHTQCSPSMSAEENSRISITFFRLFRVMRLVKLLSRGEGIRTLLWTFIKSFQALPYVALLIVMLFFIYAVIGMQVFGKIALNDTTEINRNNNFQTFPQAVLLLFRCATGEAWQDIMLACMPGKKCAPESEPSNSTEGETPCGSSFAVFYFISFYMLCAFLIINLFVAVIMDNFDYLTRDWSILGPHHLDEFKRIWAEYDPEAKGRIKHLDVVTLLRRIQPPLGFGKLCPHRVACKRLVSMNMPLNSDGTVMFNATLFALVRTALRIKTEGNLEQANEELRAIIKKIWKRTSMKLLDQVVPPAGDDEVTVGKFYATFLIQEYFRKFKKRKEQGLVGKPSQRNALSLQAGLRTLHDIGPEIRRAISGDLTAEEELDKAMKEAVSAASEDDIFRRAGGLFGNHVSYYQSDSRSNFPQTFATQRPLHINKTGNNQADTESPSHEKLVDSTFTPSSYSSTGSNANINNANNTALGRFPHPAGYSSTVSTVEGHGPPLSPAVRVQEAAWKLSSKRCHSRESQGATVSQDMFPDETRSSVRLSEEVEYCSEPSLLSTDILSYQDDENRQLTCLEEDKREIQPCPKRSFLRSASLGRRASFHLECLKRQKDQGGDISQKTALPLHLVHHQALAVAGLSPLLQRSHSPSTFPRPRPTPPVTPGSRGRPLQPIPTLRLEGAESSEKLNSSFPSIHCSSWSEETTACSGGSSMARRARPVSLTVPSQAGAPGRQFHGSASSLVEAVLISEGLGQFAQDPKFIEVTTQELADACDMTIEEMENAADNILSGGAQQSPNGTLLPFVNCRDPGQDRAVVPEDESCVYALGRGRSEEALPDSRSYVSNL
T1 sequence (P54290 25-944 partner limits assumed): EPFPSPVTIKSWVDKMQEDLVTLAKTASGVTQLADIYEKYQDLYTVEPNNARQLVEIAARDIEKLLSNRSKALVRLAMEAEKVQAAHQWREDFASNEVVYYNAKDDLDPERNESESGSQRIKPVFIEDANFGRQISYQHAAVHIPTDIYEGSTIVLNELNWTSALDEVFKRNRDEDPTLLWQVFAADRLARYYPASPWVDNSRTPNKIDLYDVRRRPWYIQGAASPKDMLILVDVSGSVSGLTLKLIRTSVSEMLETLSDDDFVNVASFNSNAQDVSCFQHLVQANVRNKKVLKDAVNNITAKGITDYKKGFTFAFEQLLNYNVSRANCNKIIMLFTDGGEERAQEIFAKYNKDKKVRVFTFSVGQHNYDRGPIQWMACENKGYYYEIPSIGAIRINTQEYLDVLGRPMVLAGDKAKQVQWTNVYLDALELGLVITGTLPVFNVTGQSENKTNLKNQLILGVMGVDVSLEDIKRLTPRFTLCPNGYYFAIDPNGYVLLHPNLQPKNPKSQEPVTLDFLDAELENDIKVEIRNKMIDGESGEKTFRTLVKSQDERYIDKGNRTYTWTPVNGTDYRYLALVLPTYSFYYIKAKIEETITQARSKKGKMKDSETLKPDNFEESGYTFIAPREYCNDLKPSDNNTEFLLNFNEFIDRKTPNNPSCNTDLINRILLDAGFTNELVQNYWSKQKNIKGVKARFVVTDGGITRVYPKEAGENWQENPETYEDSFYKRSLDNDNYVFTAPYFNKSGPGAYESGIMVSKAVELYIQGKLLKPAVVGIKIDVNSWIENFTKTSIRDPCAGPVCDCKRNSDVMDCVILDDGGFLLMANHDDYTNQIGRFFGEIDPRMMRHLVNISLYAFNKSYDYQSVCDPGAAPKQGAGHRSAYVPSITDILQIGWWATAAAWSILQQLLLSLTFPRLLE
T1 sequence (P54290 945-1091 partner limits assumed): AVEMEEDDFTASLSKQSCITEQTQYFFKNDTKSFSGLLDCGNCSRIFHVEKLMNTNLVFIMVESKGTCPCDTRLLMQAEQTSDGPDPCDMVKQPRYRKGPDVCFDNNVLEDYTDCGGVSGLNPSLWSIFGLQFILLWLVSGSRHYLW
T1 sequence (P54283 whole entry partner): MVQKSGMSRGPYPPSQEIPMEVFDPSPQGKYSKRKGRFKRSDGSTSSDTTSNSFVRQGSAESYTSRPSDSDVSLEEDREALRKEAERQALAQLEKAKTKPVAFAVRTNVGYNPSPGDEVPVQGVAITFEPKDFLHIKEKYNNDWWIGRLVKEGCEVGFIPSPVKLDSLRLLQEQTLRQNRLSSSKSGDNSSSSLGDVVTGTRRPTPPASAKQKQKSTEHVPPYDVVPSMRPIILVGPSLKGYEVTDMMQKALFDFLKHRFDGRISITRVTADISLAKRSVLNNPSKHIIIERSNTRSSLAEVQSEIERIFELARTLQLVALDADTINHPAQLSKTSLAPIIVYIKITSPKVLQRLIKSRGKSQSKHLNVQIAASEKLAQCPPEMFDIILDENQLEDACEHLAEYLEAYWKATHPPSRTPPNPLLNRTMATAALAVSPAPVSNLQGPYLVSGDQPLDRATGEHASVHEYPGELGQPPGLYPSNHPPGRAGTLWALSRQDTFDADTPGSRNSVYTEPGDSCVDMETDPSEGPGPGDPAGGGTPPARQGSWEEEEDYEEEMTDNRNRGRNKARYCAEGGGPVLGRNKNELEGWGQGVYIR

Compound | IC50 [1] [nM] | IC50 [2] [nM]
COc1ccc(CNCC(=O)N2CCC(N(C3CC3)S(=O)(=O)c3ccc(Cl)cc3)CC2)cc1 [Compound 100, 4-Chloro-N-cyclopropyl-N-{1-[2-(4-methoxybenzylamino)acetyl]-piperidin-4-yl}-benzenesulfonamide] | 10000 to 20000 | 660
CC(C)N(C1CCN(CCC(=O)Nc2ccc(F)cc2)CC1)S(=O)(=O)c1cccc(C(F)(F)F)c1 [Compound 107a, N-(4-Fluorophenyl)-3-{4-[isopropyl-(3-trifluoromethylbenzenesulfonyl)amino]-piperidin-1-yl}-propionamide] | 9750 | 570
COc1ccccc1NC(=O)CCN1CCC(N(C(C)C)S(=O)(=O)c2cccc(C(F)(F)F)c2)CC1 [Compound 107b, 3-{4-[Isopropyl-(3-trifluoromethylbenzenesulfonyl)amino]-piperidin-1-yl}-N-(2-methoxyphenyl)-propionamide] | > 20000 | 670
CC(C)N(C1CCN(C(=O)[C@H](Cc2ccccc2)NCC(N)=O)CC1)S(=O)(=O)c1cccc(C(F)(F)F)c1 [Compound 109, (S)-2-(1-Benzyl-2-{4-[isopropyl(3-trifluoromethylbenzene-sulfonyl)amino]-piperidin-1-yl}-2-oxo-ethylamino)-acetamide] | 7430 | 790
CC(C)CC(O)C(=O)N1CCC(N(C(C)C)S(=O)(=O)c2cccc(C(F)(F)F)c2)CC1 (centres unmarked) [N-[1-(2-hydroxy-4-methyl-pentanoyl)-piperidin-4-yl]-N-isopropyl-3-trifluoromethyl-benzenesulfonamide] | 5490 | 950
COc1ccccc1NCCC(=O)N1CCC(N(C(C)C)S(=O)(=O)c2cccc(C(F)(F)F)c2)CC1 [N-isopropyl-N-{1-[3-(2-methoxy-phenylamino)-propionyl]-piperidin-4-yl}-3-trifluoromethyl-benzenesulfonamide] | 3800 | 370
CC(C)N(C1CCN(C(=O)CCNc2ccccc2OC(F)(F)F)CC1)S(=O)(=O)c1cccc(C(F)(F)F)c1 [N-isopropyl-N-{1-[3-(2-trifluoromethoxy-phenylamino)-propionyl]-piperidin-4-yl}-3-trifluoromethyl-benzenesulfonamide] | > 20000 | 330
COc1ccc(CNCCC(=O)N2CCC(N(C(C)C)S(=O)(=O)c3cccc(C(F)(F)F)c3)CC2)cc1 [N-isopropyl-N-{1-[3-(4-methoxy-benzylamino)-propionyl]-piperidin-4-yl}-3-trifluoromethyl-benzenesulfonamide] | 4300 | 320
COc1cccc(NCCC(=O)N2CCC(N(C(C)C)S(=O)(=O)c3cccc(C(F)(F)F)c3)CC2)c1OC [N-{1-[3-(2,3-dimethoxy-phenylamino)-propionyl]-piperidin-4-yl}-N-isopropyl-3-trifluoromethyl-benzenesulfonamide] | 10000 to 20000 | 310
Cc1cccc(C)c1NCCC(=O)N1CCC(N(C(C)C)S(=O)(=O)c2cccc(C(F)(F)F)c2)CC1 [N-{1-[3-(2,6-dimethyl-phenylamino)-propionyl]-piperidin-4-yl}-N-isopropyl-3-trifluoromethyl-benzenesulfonamide] | > 20000 | 460
CC(C)CC(CC(=O)N1CCC(N(C(C)C)S(=O)(=O)c2cccc(C(F)(F)F)c2)CC1)NCCOCc1ccccc1 (centres unmarked) [N-{1-[3-(2-benzyloxy-ethylamino)-5-methyl-hexanoyl]-piperidin-4-yl}-N-isopropyl-3-trifluoromethyl-benzenesulfonamide] | 4480 | 220

The next lines start with the values.

IC50 [1] [nM] | IC50 [2] [nM] | Compound
8100 | 630 | COc1ccccc1CNCC(=O)N1CCC(N(C2CC2)S(=O)(=O)c2ccc(Cl)cc2)CC1 [Compound 101, 4-Chloro-N-cyclopropyl-N-{1-[2-(2-methoxybenzylamino)acetyl]-piperidin-4-yl}-benzenesulfonamide]
> 20000 | 220 | CC(C)N(C1CCN(C(=O)CNCC2CCCCC2)CC1)S(=O)(=O)c1cccc(C(F)(F)F)c1 [Compound 102, N-{1-[2-(Cyclohexylmethylamino)acetyl]-piperidin-4-yl}-N-isopropyl-3-trifluoromethylbenzenesulfonamide]
7730 | 700 | CC(C)N(C1CCN(C(=O)CN(CCO)Cc2ccccc2)CC1)S(=O)(=O)c1cccc(C(F)(F)F)c1 [Compound 103, N-(1-{2-[Benzyl-(2-hydroxyethyl)-amino]acetyl}-piperidin-4-yl)-N-isopropyl-3-trifluoromethylbenzenesulfonamide]
> 20000 | 2320 | O=C(Nc1cc(C(F)(F)F)cc(C(F)(F)F)c1)N1CCC(N(C2CC2)S(=O)(=O)c2cccc(C(F)(F)F)c2)CC1 [Compound 111, 4-[Cyclopropyl-(3-trifluoromethylbenzenesulfonyl)amino]-piperidine-1-carboxylic acid (3,5-bis-trifluoromethylphenyl)-amide]
> 20000 | 640 | CN(C1CCN(C(=O)Nc2cc(C(F)(F)F)cc(C(F)(F)F)c2)CC1)S(=O)(=O)c1ccccc1 [Compound 112, (4-Benzenesulfonyl-methyl-amino)-piperidine-1-carboxylic acid (3,5-bis-trifluoromethylphenyl)-amide]
5280 | 430 | Cc1ccccc1NCCC(=O)N1CCC(N(C(C)C)S(=O)(=O)c2cccc(C(F)(F)F)c2)CC1 [N-isopropyl-N-[1-(3-o-tolylamino-propionyl)-piperidin-4-yl]-3-trifluoromethyl-benzenesulfonamide]
10000 to 20000 | 420 | COc1cccc(NCCC(=O)N2CCC(N(C(C)C)S(=O)(=O)c3cccc(C(F)(F)F)c3)CC2)c1 [N-isopropyl-N-{1-[3-(3-methoxy-phenylamino)-propionyl]-piperidin-4-yl}-3-trifluoromethyl-benzenesulfonamide]
> 20000 | 770 | CC(C)N(C1CCN(C(=O)CCNc2cccc(OC(F)(F)F)c2)CC1)S(=O)(=O)c1cccc(C(F)(F)F)c1 [N-isopropyl-N-{1-[3-(3-trifluoromethoxy-phenylamino)-propionyl]-piperidin-4-yl}-3-trifluoromethyl-benzenesulfonamide]
2380 | 710 | CC(C)N(C1CCN(C(=O)C(N)Cc2ccc(OCc3ccccc3)cc2)CC1)S(=O)(=O)c1cccc(C(F)(F)F)c1 (centres unmarked) [N-{1-[2-amino-3-(4-benzyloxy-phenyl)-propionyl]-piperidin-4-yl}-N-isopropyl-3-trifluoromethyl-benzenesulfonamide]
> 20000 | 830 | CC(C)N(C1CCN(C(=O)CCNc2ccc(F)cc2F)CC1)S(=O)(=O)c1cccc(C(F)(F)F)c1 [N-{1-[3-(2,4-difluoro-phenylamino)-propionyl]-piperidin-4-yl}-N-isopropyl-3-trifluoromethyl-benzenesulfonamide]
> 20000 | 750 | COc1ccc(OC)c(NCCC(=O)N2CCC(N(C(C)C)S(=O)(=O)c3cccc(C(F)(F)F)c3)CC2)c1 [N-{1-[3-(2,5-dimethoxy-phenylamino)-propionyl]-piperidin-4-yl}-N-isopropyl-3-trifluoromethyl-benzenesulfonamide]
